Experimental data from EP0845034B1, “PEPTIDE HAVING PRONOCICEPTIVE PROPERTIES” (Euroscreen S.A., priority 1995, dated 1997).
Structures can show the parent of a compound that is named as a salt.

Assays:
mice [1] = test: antagonism of nociceptin-induced stimulation of horizontal locomotor activity; assay type: in vivo
mice [2] = conditions: mouse, in vivo

C=CCN1CC[C@]23c4c5ccc(O)c4O[C@H]2C(=O)CC[C@@]3(O)[C@H]1C5 [Naloxone, Naloxone hydrochloride]
effect on motor-stimulant effect of nociceptin (mice [1]; 0.0-4.5 mg/kg s.c., 10 minutes before i.c.v. 100 ng nociceptin, first 10 minutes of testing): did not suppress

O=C(CCCN1CCC(O)(c2ccc(Cl)cc2)CC1)c1ccc(F)cc1 [haloperidol]
effect on nociceptin-induced stimulation of locomotor activity (mice [1]; increasing doses of D2 dopamine receptor antagonist pretreatment): antagonized

CN1CC[C@]23c4c5ccc(O)c4O[C@H]2[C@@H](O)C=C[C@H]3[C@H]1C5 [morphin]
number of explored holes (mice [2]): 24 ± 2
